Assay results taken from patent US9845291B2, “Estrogen receptor modulators and uses thereof” (Genentech, Inc., priority 2014, dated 2017).

Target: estrogen receptor alpha (ESR1) (Homo sapiens, UniProt P03372)
Test: cell-based
Conditions: for ER-alpha MCF7 HCS Sinf: MCF7 breast cancer cells, 4 hours, plateau of the maximal effect, DMSO and Fulvestrant define 0% and 100% changes in ESR1
Procedure: Where more than one name is associated with a Formula I compound or intermediate, the chemical structure shall define the compound.
Cell plates were incubated at 37° C., for 4 hours. Fixation and permeabilization were carried out using a Biotek EL406 plate washer and dispenser as follows. […] Samples were incubated 30 minutes. Well contents was aspirated and 50 ul/well of Phosphate Buffered Saline (PBS) containing 0.5% w/v bovine serum albumen, 0.5% v/v Triton X-100 (Antibody Dilution Buffer) was added to each well. Samples were incubated for 30 minutes. Well contents were aspirated and washed 3 times with 100 ul/well of PBS. Immunofluorescence staining of estrogen receptor alpha (ESR1) was carried out using a Biotek EL406 plate washer and dispenser as follows. […] Samples were incubated for 2 hours at room temperature. Samples were washed 4 times with 100 ul/well of PBS. […] Samples were incubated for 2 hours at room temperature. Samples were washed 3 times with 100 ul/well of PBS using a Biotek EL406. Quantitative fluorescence imaging of ESR1 was carried out using a Cellomics Arrayscan V (Thermo). […] Channel 1 (DNA stain) was used to define the nuclear region (Circ). […] Data analysis was carried out using Genedata Screener Software, with DMSO and 5 nM Fulvestrant treated samples being used to define the 0% and 100% changes in ESR1. The “Robust Fit” method was used to define the inflexion point of curve (EC50) and the plateau of the maximal effect (Sin f).

estrogen receptor alpha (ESR1), sequence (P03372 whole entry): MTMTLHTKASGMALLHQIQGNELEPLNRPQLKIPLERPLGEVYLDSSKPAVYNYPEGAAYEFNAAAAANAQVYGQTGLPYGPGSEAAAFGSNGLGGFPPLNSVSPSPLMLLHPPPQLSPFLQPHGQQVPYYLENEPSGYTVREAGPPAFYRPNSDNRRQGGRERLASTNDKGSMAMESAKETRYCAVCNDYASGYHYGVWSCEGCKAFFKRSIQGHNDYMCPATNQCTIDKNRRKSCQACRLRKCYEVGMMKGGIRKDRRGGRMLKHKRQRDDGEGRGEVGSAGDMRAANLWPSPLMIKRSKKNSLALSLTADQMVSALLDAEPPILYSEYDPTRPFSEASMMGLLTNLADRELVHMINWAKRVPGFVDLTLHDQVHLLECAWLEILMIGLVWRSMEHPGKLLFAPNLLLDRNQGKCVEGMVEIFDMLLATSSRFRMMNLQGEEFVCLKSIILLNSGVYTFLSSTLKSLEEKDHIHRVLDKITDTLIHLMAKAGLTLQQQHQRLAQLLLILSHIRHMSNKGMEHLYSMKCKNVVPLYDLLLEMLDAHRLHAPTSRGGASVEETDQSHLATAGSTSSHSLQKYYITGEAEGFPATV

| Structure (SMILES) | EC50 | ER-alpha MCF7 HCS Sinf |
| --- | --- | --- |
| O=C(c1ccc(OCCN2CC(CF)C2)c(F)c1)c1c(-c2ccccc2Cl)nsc1-c1ccc(O)cc1 [Example 72, [3-(2-Chloro-phenyl)-5-(4-hydroxy-phenyl)-isothiazol-4-yl]-{3-fluoro-4-[2-(3-fluoromethyl-azetidin-1-yl)-ethoxy]-phenyl}-methanone] | 0.0159 nM | −99.0% |
| O=C(c1ccc(OCCN2CC[C@@H](CF)C2)c(F)c1)c1c(-c2ccccc2Cl)noc1-c1ccc(O)cc1 [Example 73, [3-(2-chlorophenyl)-5-(4-hydroxyphenyl)isoxazol-4-yl]-[3-fluoro-4-[2-[(3R)-3-(fluoromethyl)pyrrolidin-1-yl]ethoxy]phenyl]methanone] | 0.123 nM | −97.6% |
| Oc1ccc2c(c1)C1=C(c3cc(O)ccc3OCC1)[C@H](c1ccc(OCCN3CC(CF)C3)cc1)O2 [Example 74, (S)-8-(4-(2-(3-(fluoromethyl)azetidin-1-yl)ethoxy)phenyl)-1,8-dihydro-2H-benzo[2,3]oxepino[4,5-c]chromene-6,12-diol] | 0.19 nM | −93.3% |
| Oc1ccc2c(c1)C1=C(c3cc(O)ccc3OCC1)[C@@H](c1ccc(OCCN3CC(CF)C3)cc1)O2 [Example 75, (R)-8-(4-(2-(3-(fluoromethyl)azetidin-1-yl)ethoxy)phenyl)-1,8-dihydro-2H-benzo[2,3]oxepino[4,5-c]chromene-6,12-diol] | 3.2 nM | −99.7% |
| C[C@@H](COc1ccc(C(=O)c2c(-c3ccccc3Cl)noc2-c2ccc(O)cc2)cc1F)N1CC[C@@H](CF)C1 [Example 76, [3-(2-chlorophenyl)-5-(4-hydroxyphenyl)isoxazol-4-yl]-[3-fluoro-4-[(2S)-2-[(3R)-3-(fluoromethyl)pyrrolidin-1-yl]propoxy]phenyl]methanone] | 0.091 nM | −101% |
| Oc1ccc2c(c1)O[C@H](c1ccc(OCCN3CC(CF)C3)cc1)C1=C2CCOc2ccc(O)cc21 [Example 77, (R)-8-(4-(2-(3-(fluoromethyl)azetidin-1-yl)ethoxy)phenyl)-2,8-dihydro-1H-benzo[2,3]oxepino[4,5-c]chromene-6,11-diol] | 9.59 nM | −84.5% |
| Oc1ccc2c(c1)O[C@@H](c1ccc(OCCN3CC(CF)C3)cc1)C1=C2CCOc2ccc(O)cc21 [Example 78, (S)-8-(4-(2-(3-(fluoromethyl)azetidin-1-yl)ethoxy)phenyl)-2,8-dihydro-1H-benzo[2,3]oxepino[4,5-c]chromene-6,11-diol] | 0.611 nM | −90.0% |
| CS(=O)(=O)c1ccc(-c2ccc3c(F)c(O)ccc3c2Oc2ccc(OCCN3CC[C@@H](CF)C3)cc2)cc1 [Example 79, (R)-1-fluoro-5-(4-(2-(3-(fluoromethyl)pyrrolidin-1-yl)ethoxy)phenoxy)-6-(4-(methylsulfonyl)phenyl) naphthalen-2-ol] | 0.072 nM | −89.6% |
| CC/C(=C(/c1ccc(OCCN2CC(CF)C2)cc1)c1ccc2[nH]ncc2c1)c1ccc(F)cc1Cl [Example 82, 5-[(E)-2-(2-chloro-4-fluoro-phenyl)-1-[4-[2-[3-(fluoromethyl)azetidin-1-yl]ethoxy]phenyl]but-1-enyl]-1H-indazole] | 0.0225 nM | −96.9% |
